Laboratory results reported in patent publication US4145296A, “Weather-durable aqueous fire retardant stabilized against gelation” (priority 1977, dated 1979).
Read-outs that look alike come from different tables or passages of the source.

Tests used:
[1] = for Viscosity in centipoises at 1 Hr. / Viscosity in centipoises at 4 Hrs. / Viscosity in centipoises at 0 / Viscosity in centipoises at 6 Min. / Viscosity in centipoises at 21-28 Hrs.: additive at 3 percent weight; for gel inhibition / stabilization of aqueous dispersion (in words): conclusion from Tables II and III
[2] = pH of the aqueous dispersion; type: physicochemical; details: for Initial Dispersion pH: additive at 3 percent weight in Control dispersion; for pH (MEA At 3%): 3% MEA
[3] = thermodynamic; cited from earlier work

| Compound | Viscosity in centipoises at 1 Hr. ([1]; 1 Hr.) [centipoises] | Viscosity in centipoises at 4 Hrs. ([1]; 4 Hrs.) [centipoises] | Viscosity in centipoises at 0 ([1]; time 0) [centipoises] | Initial Dispersion pH [2] | Viscosity in centipoises at 6 Min. ([1]; 6 Min.) [centipoises] | further results |
| --- | --- | --- | --- | --- | --- | --- |
| OCCNCCO [Diethanolamine] | 750 | 875 | 600 | 9.0 | – | – |
| N.N.O=C(O)O [Ammonium carbonate] | – | – | – | – | – | Viscosity in centipoises at 1 Hr. ([1]; 1 Hr., listed as Ammonium carbonate (20%)): 850 centipoises; Viscosity in centipoises at 1 Hr. ([1]; 1 Hr., listed as Ammonium carbonate (100%)): 525 centipoises; Viscosity in centipoises at 4 Hrs. ([1]; 4 Hrs., listed as Ammonium carbonate (20%)): 1900 centipoises; Viscosity in centipoises at 4 Hrs. ([1]; 4 Hrs., listed as Ammonium carbonate (100%)): 800 centipoises; Viscosity in centipoises at 6 Min. ([1]; 6 Min., listed as Ammonium carbonate (20%)): 575 centipoises; Viscosity in centipoises at 6 Min. ([1]; 6 Min., listed as Ammonium carbonate (100%)): 350 centipoises; Viscosity in centipoises at 21-28 Hrs. ([1]; 21-28 Hrs.): gel; Viscosity in centipoises at 0 ([1]; time 0, listed as Ammonium carbonate (20%)): 475 centipoises; Viscosity in centipoises at 0 ([1]; time 0, listed as Ammonium carbonate (100%)): 300 centipoises; longer term storage of the aqueous dispersion (in words) ([1]; longer term storage): evidence of polymerization and gas evolution |
| CCN1CCOCC1 [N-Ethylmorpholine] | – | – | – | – | – | pKa at 25° C. [3]: 7.67 |
| [K+].[OH-] [Potassium hydroxide] | – | – | – | – | – | Viscosity in centipoises at 21-28 Hrs. ([1]; 21-28 Hrs.): 1450 centipoises |
| NCCN [Ethylenediamine, diaminoethane] | 525 | 500 | 450 | – | 500 | gel inhibition / stabilization of aqueous dispersion (in words) [1]: superior gel inhibitors; pKa at 25° C. [3]: greater than 8.0 |
| O.O.O.O.O.O.O.O.O.O.O.O.O=P([O-])([O-])[O-].[Na+].[Na+].[Na+] [Trisodium phosphate . 12H2 O] | 850 | 1500 | 450 | 7.7 | 600 | – |
| N [Ammonium hydroxide] | 550 | 575 | 400 | – | 400 | Viscosity in centipoises at 21-28 Hrs. ([1]; 21-28 Hrs.): 750 centipoises; gel inhibition / stabilization of aqueous dispersion (in words) [1]: good stabilization results |
| NC(N)=O [Urea] | 800 | 1800 | 600 | 6.6 | 650 | – |
| C1CCNCC1 [Piperidine] | 725 | 800 | 600 | 9.9 | 650 | – |
| CC(O)CN(CC(C)O)CC(C)O (stereo not shown) [Triisopropanolamine] | – | – | – | – | – | pKa at 25° C. [3]: 7.86 |
| O=P(O)(O)OP(=O)(O)O [Tetrasodium pyrophosphate . 10H2 O] | 900 | 1300 | 500 | – | 600 | – |
| C1N2CN3CN1CN(C2)C3 [Hexamethylene tetramine] | 950 | 2000 | 500 | 6.7 | 550 | – |
| O=P([O-])([O-])O.[Na+].[Na+] [Disodium phosphate anhydrous] | 875 | 1900 | 425 | 7.2 | 550 | – |
| O.O.O.O.O.O.O.O=P([O-])([O-])O.[Na+].[Na+] [Disodium phosphate . 7H2 O] | 975 | 2100 | 500 | 7.0 | 600 | – |
| NCCO [Monoethanolamine, 2-aminoethanol] | – | – | – | – | – | Viscosity with Monoethanolamine (MEA) ([1]; 1.5% MEA in Control dispersion, time 0): 610 Centipoises; Viscosity with Monoethanolamine (MEA) ([1]; 1.5% MEA, 1 Hr.): 760 Centipoises; Viscosity with Monoethanolamine (MEA) ([1]; 1.5% MEA, 4 Hrs.): 1125 Centipoises; Viscosity with Monoethanolamine (MEA) ([1]; 1.5% MEA, 6 Min.): 625 Centipoises; Viscosity with Monoethanolamine (MEA) ([1]; 2% MEA in Control dispersion, time 0): 650 Centipoises; Viscosity with Monoethanolamine (MEA) ([1]; 2% MEA, 1 Hr.): 750 Centipoises; Viscosity with Monoethanolamine (MEA) ([1]; 2% MEA, 4 Hrs.): 925 Centipoises; Viscosity with Monoethanolamine (MEA) ([1]; 2% MEA, 6 Min.): 700 Centipoises; Viscosity with Monoethanolamine (MEA) ([1]; 3% MEA in Control dispersion, time 0): 625 Centipoises; Viscosity with Monoethanolamine (MEA) ([1]; 3% MEA, 1 Hr.): 700 Centipoises; Viscosity with Monoethanolamine (MEA) ([1]; 3% MEA, 4 Hrs.): 750 Centipoises; Viscosity with Monoethanolamine (MEA) ([1]; 3% MEA, 6 Min.): 700 Centipoises; Viscosity with Monoethanolamine (MEA) ([1]; 3% MEA, 21-28 Hrs.): 1150 Centipoises; pH (MEA At 3%) ([2]; 1 Hr.): 9.1; pH (MEA At 3%) ([2]; 4 Hrs.): 9.1; pH (MEA At 3%) ([2]; 6 Min.): 9.2; pH (MEA At 3%) ([2]; 21-28 Hrs.): 8.7; pH (MEA At 3%) ([2]; time 0): 9.3 |
| C1COCCN1 [Morpholine, tetrahydro-p-oxazine] | 725 | 800 | 550 | 8.7 | 525 | Viscosity in centipoises at 21-28 Hrs. ([1]; 21-28 Hrs.): 2700 centipoises |
| CN(C)C=O [Dimethyl formamide] | 900 | 3100 | 475 | – | 500 | – |
